Measurements: patent US20140031227A1, “HERBICIDAL COMPOSITIONS COMPRISING 4-AMINO-3-CHLORO-5-FLUORO-6-(4-CHLORO-2-FLUORO-3-METHOXYPHENYL) PYRIDINE-2-CARBOXYLIC ACID OR A DERIVATIVE THEREOF AND GLYPHOSATE OR GLUFOSINATE” (DOW AGROSCIENCES LLC, priority 2012, published 2014)
Counter-ions that a name gives are not always drawn.

Tests used:
Assay type in all cases: in vivo
[1] = test system: LEFCH (Leptochloa chinensis (L.) Nees, Chinese sprangletop); test: Example I postemergence foliar-applied mixtures, direct seeded rice weeds, greenhouse: LEFCH
Experimental: (§1) Seeds or nutlets of the desired test plant species were planted in a soil matrix prepared by mixing a loam or sandy loam soil (e.g., 28.6 percent silt, 18.8 percent clay, and 52.6 percent sand, with a pH of about 5.8 and an organic matter content of about 1.8 percent) and calcareous grit in an 80 to 20 ratio. The soil matrix was contained in plastic pots with a volume of 1 quart and a surface area of 83.6 square centimeters (cm^2). […] The plants were grown for 8-22 days in a greenhouse with an approximate 14 hr photoperiod which was maintained at about 29° C. during the day and 26° C. during the night. Nutrients (Peters Excel® 15-5-15 5-Ca 2-Mg and iron chelate) were applied in the irrigation solution as needed and water was added on a regular basis. Supplemental lighting was provided with overhead metal halide 1000-Watt lamps as necessary. The plants were employed for testing when they reached the first through fourth true leaf stage.
(§2) Treatments consisted of the acid or esters of 4-amino-3-chloro-5-fluoro-6-(4-chloro-2-fluoro-3-methoxy-phenyl)pyridine-2-carboxylic acid (Compound A), each formulated as an SC (suspension concentrate), and various herbicidal components alone and in combination. Forms of compound A were applied on an acid equivalent basis.
(§3) For treatments comprised of formulated compounds, measured amounts of compounds were placed individually in 25 mL glass vials and diluted in a volume of 1.25% (v/v) Agri-Dex® crop oil concentrated to obtain 12× stock solutions. […] Application solutions were prepared by adding an appropriate amount of each stock solution (e.g., 1 mL) and diluted to the appropriate final concentrations with the addition of 10 mL of an aqueous mixture of 1.25% (v/v) crop oil concentrate so that the final spray solutions contained 1.25+/−0.05% (v/v) crop oil concentrate.
(§4) All stock solutions and applications solutions were visually inspected for compound compatibility prior to application. Spray solutions were applied to the plant material with an overhead Mandel track sprayer equipped with a 8002E nozzles calibrated to deliver 187 L/ha over an application area of 0.503 m^2 at a spray height of 18 to 20 inches (46 to 50 cm) above average plant canopy height. Control plants were sprayed in the same manner with the solvent blank.
(§5) The treated plants and control plants were placed in a greenhouse as described above and watered by sub-irrigation to prevent wash-off of the test compounds. After approximately 3 weeks, the condition of the test plants as compared with that of the untreated plants was determined visually and scored on a scale of 0 to 100 percent where 0 corresponds to no injury or growth inhibition and 100 corresponds to complete kill.
(§6) Colby's equation was used to determine the herbicidal effects expected from the mixtures (Colby, S. R. 1967. Calculation of the synergistic and antagonistic response of herbicide combinations. Weeds 15:20-22.).

[2] = test system: SORHA (Sorghum halepense (L.) Pers., johnsongrass); test: Example III postemergence foliar-applied mixtures, row crop weeds (corn, soybean), greenhouse: SORHA
Experimental: Seeds or nutlets of the desired test plant species were planted in a soil matrix prepared by mixing a loam or sandy loam soil (e.g., 43 percent silt, 19 percent clay, and 38 percent sand, with a pH of about 8.1 and an organic matter content of about 1.5 percent) and calcareous grit in an 80 to 20 ratio. The soil matrix was contained in plastic pots with a surface area of 84.6 square centimters (cm^2) and a volume of 560 cubic centimeters (cm^3). […] The plants were grown for 7-31 days (d) in a greenhouse with an approximate 15 hour (h) photoperiod which was maintained at about 23-29° C. during the day and 22-28° C. during the night. Nutrients (Peters Excel® 15-5-15 5-Ca 2-Mg) and water were added on a regular basis and supplemental lighting was provided with overhead metal halide 1000-Watt lamps as necessary. The plants were employed for testing when they reached the first, second, or third true leaf stage.
Treatments consisted of the acid or esters of 4-amino-3-chloro-5-fluoro-6-(4-chloro-2-fluoro-3-methoxy-phenyl)pyridine-2-carboxylic acid (Compound A), each formulated as an
SC (suspension concentrate), and various herbicidal components alone and in combination. Forms of compound A were applied on an acid equivalent basis.
Other herbicidal components were applied on an acid equivalent or active ingredient basis and included the 5-enolpyruvylshikimate-3-phosphate synthase (EPSPS)-inhibiting herbicide, glyphosate dimethylamine salt, formulated as Durango DMA® and the glutamine synthase (GS)-inhibiting herbicide, glufosinate ammonium, formulated as Ignite® 280.
For treatments comprised of formulated compounds, measured amounts of compounds were placed individually in 25 mL glass vials and diluted in a volume of 1.5% (v/v) Agri-dex® crop oil concentrate to obtain 6× stock solutions. […] Application solutions were prepared by adding an appropriate amount of each stock solution (typically 2 mL) and diluted to the appropriate final concentrations with the addition of an aqueous mixture of 1.5% (v/v) crop oil concentrate and water so that the final spray solutions contained 1.25% (v/v) crop oil concentrate.
All stock solutions and applications solutions were visually inspected for compound compatibility prior to application. Compound requirements are based upon a 12 mL application volume at a rate of 187 liters per hectare (L/ha). Formulated compounds were applied to the plant material with an overhead Mandel track sprayer equipped with 8002E nozzles calibrated to deliver 187 L/ha over an application area of 0.503 square meters (m^2) at a spray height of 18 to 20 inches (46 to 50 cm) above the average plant canopy height. Control plants were sprayed in the same manner with the solvent blank.
The treated plants and control plants were placed in a greenhouse as described above and watered by sub-irrigation to prevent wash-off of the test compounds. After approximately 2 weeks, the condition of the test plants as compared with that of the untreated plants was determined visually and scored on a scale of 0 to 100 percent where 0 corresponds to no injury or growth inhibition and 100 corresponds to complete kill.
The following equation was used to calculate the expected activity of mixtures containing two active ingredients, A and B: […]

[3] = test system: DIGSA (Digitaria sanguinalis (L.) Scop., large crabgrass); test: Example I postemergence foliar-applied mixtures, direct seeded rice weeds, greenhouse: DIGSA
Experimental: as §1, §2, §3, §4, §5, §6

[4] = test system: ECHCG (Echinochloa crusgalli (L.) Beauv., barnyardgrass); test: Example I postemergence foliar-applied mixtures, direct seeded rice weeds, greenhouse: ECHCG
Experimental: as §1, §2, §3, §4, §5, §6

[5] = test system: IPOHE (Ipomoea hederacea Jacq., ivyleaf morningglory); test: Example I postemergence foliar-applied mixtures, direct seeded rice weeds, greenhouse: IPOHE
Experimental: as §1, §2, §3, §4, §5, §6

[6] = test system: ECHCO (Echinochloa colona (L.) Link, junglerice); test: Example I postemergence foliar-applied mixtures, direct seeded rice weeds, greenhouse: ECHCO
Experimental: as §1, §2, §3, §4, §5, §6

[7] = Compound A Acid alone, 19.4 gae/ha
[8] = Compound A Acid alone, 3.75 gae/ha
[9] = Compound A Acid alone, 4.38 gae/ha
[10] = Compound A Acid alone, 8.75 gae/ha
[11] = Compound A Acid alone, 17.5 gae/ha
[12] = Compound A Benzyl Ester alone, 4.38 gae/ha
[13] = Compound A Benzyl Ester alone, 8.75 gae/ha
[14] = Compound A Benzyl Ester alone, 17.5 gae/ha
[15] = Compound A Benzyl Ester alone, 8 gae/ha
[16] = Compound A Benzyl Ester alone, 16 gae/ha
[17] = glufosinate ammonium alone, 135.5 gae/ha
[18] = glufosinate ammonium alone, 271 gae/ha

**Q.** Which results are given for `COc1c(Cl)ccc(-c2nc(C(=O)O)c(Cl)c(N)c2F)c1F` [Compound A Acid, 4-amino-3-chloro-6-(4-chloro-2-fluoro-3-methoxyphenyl)-5-fluoropyridine-2-carboxylic acid]?
**A.** Visual Weed Control (%) - 21 DAA LEFCH Obs ([1]; Compound A Acid alone, 17.5 gae/ha (Table 2)): 30%; Visual Weed Control (%) - 21 DAA LEFCH Obs ([1]; Compound A Acid alone, 17.5 gae/ha (Tables 1, 9)): 0%; Visual Weed Control (%) - 20 DAA LEFCH Obs [1, 7]: 5%; Visual Weed Control (%) - 13 DAA SORHA Obs [2, 8]: 0%; Visual Weed Control (%) - 16 DAA SORHA Obs [2, 8]: 0%; Visual Weed Control (%) - 13 DAA SORHA Obs ([2]; Compound A Acid alone, 7.5 gae/ha): 0%; Visual Weed Control (%) - 13 DAA SORHA Obs ([2]; Compound A Acid alone, 15 gae/ha): 0%; Visual Weed Control (%) - 21 DAA DIGSA Obs [3, 9]: 35%; Visual Weed Control (%) - 21 DAA DIGSA Obs [3, 10]: 50%; Visual Weed Control (%) - 21 DAA DIGSA Obs [3, 11]: 40%; Visual Weed Control (%) - 20 DAA DIGSA Obs [3, 7]: 13%; Visual Weed Control (%) - 21 DAA ECHCG Obs [4, 9]: 15%; Visual Weed Control (%) - 21 DAA ECHCG Obs [4, 10]: 50%; Visual Weed Control (%) - 21 DAA IPOHE Obs [5, 9]: 10%; Visual Weed Control (%) - 21 DAA IPOHE Obs [5, 10]: 35%; Visual Weed Control (%) - 21 DAA IPOHE Obs [5, 11]: 45%; Visual Weed Control (%) - 21 DAA ECHCO Obs ([6]; Compound A Acid alone, 4.38 gae/ha (Table 2)): 60%; Visual Weed Control (%) - 21 DAA ECHCO Obs ([6]; Compound A Acid alone, 4.38 gae/ha (Tables 1, 9)): 70%; Visual Weed Control (%) - 21 DAA ECHCO Obs ([6]; Compound A Acid alone, 8.75 gae/ha (Table 2)): 90%; Visual Weed Control (%) - 21 DAA ECHCO Obs ([6]; Compound A Acid alone, 8.75 gae/ha (Tables 1, 9)): 75%

**Q.** With `COc1c(Cl)ccc(-c2nc(C(=O)OCc3ccccc3)c(Cl)c(N)c2F)c1F` [Compound A Benzyl Ester] as the compound, how does the “Visual Weed Control (%) - 21 DAA LEFCH Obs” value [1, 12] read?
**A.** 0%

**Q.** What about the “Visual Weed Control (%) - 21 DAA LEFCH Obs” value [1, 13] of the same compound?
**A.** 40%

**Q.** And the “Visual Weed Control (%) - 21 DAA LEFCH Obs” value [1, 14]?
**A.** 45%

**Q.** What about the “Visual Weed Control (%) - 13 DAA SORHA Obs” value ([2]; Compound A Benzyl Ester alone, 3.75 gae/ha) of the same compound?
**A.** 0%

**Q.** What about the “Visual Weed Control (%) - 13 DAA SORHA Obs” value ([2]; Compound A Benzyl Ester alone, 7.5 gae/ha) of the same compound?
**A.** 0%

**Q.** And the “Visual Weed Control (%) - 13 DAA SORHA Obs” value ([2]; Compound A Benzyl Ester alone, 15 gae/ha)?
**A.** 10%

**Q.** And the “Visual Weed Control (%) - 21 DAA DIGSA Obs” value [3, 15]?
**A.** 25%

**Q.** What about the “Visual Weed Control (%) - 20 DAA DIGSA Obs” value [3, 16] of the same compound?
**A.** 18%

**Q.** And the “Visual Weed Control (%) - 21 DAA DIGSA Obs” value [3, 16]?
**A.** 30%

**Q.** And the “Visual Weed Control (%) - 21 DAA ECHCG Obs” value [4, 12]?
**A.** 10%

**Q.** And the “Visual Weed Control (%) - 21 DAA ECHCG Obs” value [4, 13]?
**A.** 85%

**Q.** What about the “Visual Weed Control (%) - 21 DAA IPOHE Obs” value [5, 12] of the same compound?
**A.** 10%

**Q.** And the “Visual Weed Control (%) - 21 DAA IPOHE Obs” value [5, 15]?
**A.** 10%

**Q.** And the “Visual Weed Control (%) - 21 DAA IPOHE Obs” value [5, 13]?
**A.** 10%

**Q.** And the “Visual Weed Control (%) - 20 DAA IPOHE Obs” value [5, 16]?
**A.** 18%

**Q.** And the “Visual Weed Control (%) - 21 DAA IPOHE Obs” value [5, 16]?
**A.** 10%

**Q.** And the “Visual Weed Control (%) - 21 DAA IPOHE Obs” value [5, 14]?
**A.** 25%

**Q.** What about the “Visual Weed Control (%) - 21 DAA IPOHE Obs” value ([5]; Compound A Benzyl Ester alone, 32 gae/ha) of the same compound?
**A.** 45%

**Q.** What about the “Visual Weed Control (%) - 21 DAA ECHCO Obs” value [6, 12] of the same compound?
**A.** 70%

**Q.** What about the “Visual Weed Control (%) - 21 DAA ECHCO Obs” value [6, 13] of the same compound?
**A.** 75%

**Q.** For `CP(=O)(O)CCC(N)C(=O)O` (stereo not drawn) [Glufosinate ammonium salt, 2-amino-4-(hydroxymethylphosphinyl)butanoic acid monoammonium salt, reference compound], which “Visual Weed Control (%) - 21 DAA LEFCH Obs” value [1, 17] is on record?
**A.** 0%

**Q.** What about the “Visual Weed Control (%) - 21 DAA LEFCH Obs” value [1, 18] of the same compound?
**A.** 10%

**Q.** What about the “Visual Weed Control (%) - 13 DAA SORHA Obs” value [2, 18] of the same compound?
**A.** 20%

**Q.** What about the “Visual Weed Control (%) - 13 DAA SORHA Obs” value ([2]; glufosinate ammonium alone, 542 gae/ha) of the same compound?
**A.** 25%

**Q.** And the “Visual Weed Control (%) - 21 DAA DIGSA Obs” value [3, 17]?
**A.** 0%

**Q.** What about the “Visual Weed Control (%) - 21 DAA ECHCG Obs” value [4, 17] of the same compound?
**A.** 60%

**Q.** What about the “Visual Weed Control (%) - 21 DAA ECHCG Obs” value [4, 18] of the same compound?
**A.** 10%

**Q.** What about the “Visual Weed Control (%) - 21 DAA IPOHE Obs” value ([5]; glufosinate ammonium alone, 112.5 gai/ha) of the same compound?
**A.** 10%

**Q.** And the “Visual Weed Control (%) - 20 DAA IPOHE Obs” value ([5]; glufosinate ammonium alone, 542 gai/ha)?
**A.** 50%

**Q.** And the “Visual Weed Control (%) - 21 DAA ECHCO Obs” value [6, 17]?
**A.** 0%

**Q.** What about the “Visual Weed Control (%) - 21 DAA ECHCO Obs” value [6, 18] of the same compound?
**A.** 0%
